Consider 11 molecules from PubChem BioAssay (NCI).

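Method: 48-hour compound exposure of cells in 96-well plates, five concentrations, linear interpolation of endpoints. TGI marks complete inhibition of growth.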

Some test systems named below: SN12C renal; RPMI-8226 leukemia; MALME-3M melanoma; HL-60(TB) leukemia; CCRF-CEM leukemia; SK-MEL-2 melanoma; SF-539 CNS; SK-OV-3 ovarian; RXF 393 renal; 786-0 renal; OVCAR-8 ovarian; MDA-MB-435; MCF7 breast; NCI-H226 lung.
Common to all, as to test: NCI anticancer screen, dose series, 48 h

Turning to `O=C(c1ccco1)N(C(=S)N1CCN(c2ccccc2)CC1)C1CCCCC1`, the TGI in the experiment on SN12C renal, in the experiment with RPMI-8226 leukemia, with MALME-3M melanoma, in the experiment on HL-60(TB) leukemia, in the experiment with CCRF-CEM leukemia and with SK-MEL-2 melanoma was more than 100 µM in each case. Also, the TGI in the experiment with SF-539 CNS, in the experiment on SK-OV-3 ovarian, in the experiment on RXF 393 renal, in the experiment with 786-0 renal and in the experiment on OVCAR-8 ovarian was more than 100 µM in each case.

Turning to `COC(=O)c1cc(OS(=O)(=O)C(F)(F)F)c(=O)n2c1CCCC2`, the TGI in the experiment on SN12C renal, in the experiment on MDA-MB-435, in the experiment on MALME-3M melanoma, in the experiment with HL-60(TB) leukemia, in the experiment with CCRF-CEM leukemia and with MCF7 breast was more than 100 µM in each case. Besides, the TGI in the experiment on SK-MEL-2 melanoma, in the experiment with NCI-H226 lung, in the experiment on SF-539 CNS, in the experiment on SK-OV-3 ovarian, in the experiment with RXF 393 renal and in the experiment on 786-0 renal was more than 100 µM in each case. In addition, the TGI with OVCAR-8 ovarian is more than 100 µM.

Turning to `COc1cc2c(oc(=O)c3c4occc4cc(OC)c23)c2cccc(OCc3ccccc3)c12`, the TGI in the experiment on SN12C renal, with RPMI-8226 leukemia, with MALME-3M melanoma, in the experiment on HL-60(TB) leukemia, in the experiment with CCRF-CEM leukemia and in the experiment on SK-MEL-2 melanoma was more than 100 µM each time. Moreover, the TGI in the experiment on NCI-H226 lung, with SF-539 CNS, in the experiment with SK-OV-3 ovarian, in the experiment on RXF 393 renal, with 786-0 renal and in the experiment on OVCAR-8 ovarian was more than 100 µM throughout.

In the case of `CC(=O)OC1OC(c2ccoc2)C[C@@]12C1CCC3O[C@]3(C)[C@]1(C)[C@H](OC(C)=O)[C@H](OC(C)=O)[C@H]2C` (some centres not stated), the TGI in the experiment on SN12C renal, in the experiment on MALME-3M melanoma, with HL-60(TB) leukemia, in the experiment on CCRF-CEM leukemia, with MCF7 breast and in the experiment with SK-MEL-2 melanoma was more than 37.5 µM each time. Also, the TGI with NCI-H226 lung, with SF-539 CNS, in the experiment with SK-OV-3 ovarian, in the experiment with RXF 393 renal, with 786-0 renal and with OVCAR-8 ovarian was more than 37.5 µM in each case.

As for `S=C=Nc1ccc(CSc2nc3ccccc3[nH]2)cc1`, the TGI in the experiment with SN12C renal is 31.3 µM; in the experiment on MDA-MB-435, 33.9 µM; in the experiment on RPMI-8226 leukemia, 52.5 µM; in the experiment on MALME-3M melanoma it was 32 µM; in the experiment with HL-60(TB) leukemia it was more than 100 µM; in the experiment with CCRF-CEM leukemia it was 80.4 µM. The TGI stood at 34.8 µM in the experiment on SK-MEL-2 melanoma; 33.4 µM in the experiment with SF-539 CNS; 40.3 µM with SK-OV-3 ovarian; 33.5 µM in the experiment with RXF 393 renal; 37.5 µM with 786-0 renal; 32.3 µM with OVCAR-8 ovarian.

For the molecule `Cc1c[nH]c(C(=O)O)c1-c1cccn1-c1ccc(Cl)cc1[N+](=O)[O-]`, the TGI in the experiment with SN12C renal, in the experiment on MDA-MB-435, in the experiment on CCRF-CEM leukemia, in the experiment with MCF7 breast, in the experiment on SK-MEL-2 melanoma and in the experiment on NCI-H226 lung was more than 100 µM throughout. Further, the TGI in the experiment with SF-539 CNS, in the experiment with SK-OV-3 ovarian, with RXF 393 renal, with 786-0 renal and in the experiment with OVCAR-8 ovarian was more than 100 µM each time.

For `c1csc(-c2nccc3c2[nH]c2ccccc23)c1`, the TGI in the experiment with SN12C renal was 38.8 µM; in the experiment on MDA-MB-435, 32.2 µM; with MALME-3M melanoma, 47.2 µM; in the experiment on HL-60(TB) leukemia, 55.9 µM; with CCRF-CEM leukemia it was 51.5 µM; in the experiment with MCF7 breast, 20.8 µM. The TGI in the experiment with SK-MEL-2 melanoma is 41.8 µM; with NCI-H226 lung, 32 µM; with SF-539 CNS, 32 µM; with SK-OV-3 ovarian it was 41.5 µM; with RXF 393 renal, 36.1 µM; in the experiment on 786-0 renal, 32.9 µM. In the experiment with OVCAR-8 ovarian, this molecule showed a TGI of 42.8 µM.

For the molecule `O=C(O)Cc1ccc(Nc2nc3ccccc3nc2C(=O)O)cc1`, the TGI in the experiment with SN12C renal, in the experiment with MDA-MB-435, in the experiment with MALME-3M melanoma, with HL-60(TB) leukemia, in the experiment with CCRF-CEM leukemia and with MCF7 breast was more than 100 µM each time. Also, the TGI with SK-MEL-2 melanoma, in the experiment on NCI-H226 lung, in the experiment on SF-539 CNS, with SK-OV-3 ovarian, in the experiment on RXF 393 renal and with 786-0 renal was more than 100 µM throughout. Further, in the experiment with OVCAR-8 ovarian, the TGI is more than 100 µM.

On to `O=c1[nH]nc(-c2ccccc2)n1/N=C/c1ccco1`, for which the TGI with SN12C renal, in the experiment with MDA-MB-435, in the experiment with MALME-3M melanoma, with HL-60(TB) leukemia, in the experiment with CCRF-CEM leukemia and in the experiment with MCF7 breast was more than 100 µM in each case. In addition, the TGI with SK-MEL-2 melanoma, in the experiment on SF-539 CNS, with SK-OV-3 ovarian, with RXF 393 renal, in the experiment on 786-0 renal and with OVCAR-8 ovarian was more than 100 µM each time.

For `CC(C)(C)C1CCC2c3c([nH]c4ncccc34)C3C(=O)N(c4ccccc4)C(=O)C3C2C1` (configuration not stated), the TGI in the experiment with SN12C renal, with RPMI-8226 leukemia, in the experiment on MALME-3M melanoma, in the experiment on HL-60(TB) leukemia, with CCRF-CEM leukemia and in the experiment on SK-MEL-2 melanoma was more than 100 µM in each case. In addition, the TGI in the experiment with NCI-H226 lung, in the experiment with SF-539 CNS, in the experiment on SK-OV-3 ovarian, in the experiment with RXF 393 renal, with 786-0 renal and with OVCAR-8 ovarian was more than 100 µM in each case.

Regarding `Cc1ccc(S(=O)(=O)N2CCCSCCSCCCN(S(=O)(=O)c3ccc(C)cc3)CC2)cc1`, the TGI in the experiment on SN12C renal, in the experiment with MDA-MB-435, in the experiment on RPMI-8226 leukemia, in the experiment with MCF7 breast, with SK-MEL-2 melanoma and in the experiment with NCI-H226 lung was more than 100 µM in each case. The TGI in the experiment on SF-539 CNS, in the experiment on SK-OV-3 ovarian, in the experiment on RXF 393 renal, in the experiment on 786-0 renal and with OVCAR-8 ovarian was more than 100 µM in each case.
